Experiment [1] relates to Mycobacterium tuberculosis. Briefly: Antimycobacterial activity against Mycobacterium tuberculosis. The format is functional.
Experiment [2] relates to Vero. Briefly: Selectivity index (CC50/MIC90). The format is functional.
Experiment [3] deals with Vero. Briefly: Cytotoxicity against Vero cells by MTT assay. The format is functional. As to conditions: Chlorocebus sabaeus. (Tetrazolium dyes change colour on reduction, which living cells bring about.)
The subject of experiment [4] is Mycobacterium tuberculosis. The experiment can be described thus: Activity against Mycobacterium tuberculosis ATCC 35801 in spleen of CD1 mice at 100 mg/kg. The format is functional.
The test system of experiment [5] is Mycobacterium tuberculosis. Briefly: Activity against Mycobacterium tuberculosis ATCC 35801 in lungs of CD1 mice at 100 mg/kg. The format is functional, Lung.

In brackets after ≈: the same amount, converted by molar mass. A value given as a limit tells only on which side of the number the result lay.

This is an account of results in ChEMBL document CHEMBL1146941, “Synthesis of pyrazinamide Mannich bases and its antitubercular properties” (2006).

For orientation: MIC90 means an inhibitory concentration at the 90% level, which refers to growth in some studies and to a panel of isolates in others. A low value points to higher susceptibility. Turning to `O=C(NCN1CCN(c2ccccn2)CC1)c1cnccn1`, in experiment [1], the MIC90 turned out to be 12.5 µg/mL (≈ 41.9 µM).
As a reminder, the CC50 is the concentration that lowers cell viability or growth by half. High values mean lower toxicity to the cells, low ones greater toxicity to the cells. As for `O=C(NCN1CCN(c2ccc(C(F)(F)F)cc2)CC1)c1cnccn1`, in the experiment with Vero [2], the Selectivity index was above 80. The CC50 with Vero [3] was above 62.5 µg/mL. Further, the MIC90 in experiment [1] turned out to be 0.78 µg/mL (≈ 2.13 µM).
In the case of `CN1CCN(CNC(=O)c2cnccn2)CC1`, the Log10 cfu stood at 7.18 in experiment [4] and 6.02 in experiment [5]. In experiment [1], the MIC90 is 12.5 µg/mL (≈ 53.1 µM).
`O=C(NCN1CCN(Cc2ccccc2)CC1)c1cnccn1` displayed an MIC90 in experiment [1] of 6.25 µg/mL (≈ 20.1 µM).
The same measure, in the same setting: to `O=C(NCN1CCN(c2cccc(Cl)c2)CC1)c1cnccn1` belongs 3.12 µg/mL (≈ 9.4 µM); to `O=C(NCN1CCN(c2ccc(Cl)cc2)CC1)c1cnccn1`, 3.12 µg/mL (≈ 9.4 µM).
Still for that read-out and setting: to `COc1ccc(N2CCN(CNC(=O)c3cnccn3)CC2)cc1` belongs 12.5 µg/mL (≈ 38.2 µM); to `O=C(NCN1CCN(c2ccc([N+](=O)[O-])cc2)CC1)c1cnccn1`, 6.25 µg/mL (≈ 18.3 µM); to `COc1cccc(N2CCN(CNC(=O)c3cnccn3)CC2)c1`, 12.5 µg/mL (≈ 38.2 µM).
Still for that read-out and setting: to `O=C(NCN1CCN(c2ccccc2)CC1)c1cnccn1` belongs 6.25 µg/mL (≈ 21 µM).
In turn, `CCn1cc(C(=O)O)c(=O)c2cc(F)c(N3CCN(CNC(=O)c4cnccn4)CC3)cc21` returned a Selectivity index with Vero [2] above 40. This compound also showed a CC50 in the experiment with Vero [3] above 62.5 µg/mL. The same compound showed an MIC90 in experiment [1] of 1.76 µg/mL (≈ 3.87 µM).
For `O=C(NCN1CCN(c2cc3c(cc2F)c(=O)c(C(=O)O)cn3C2CC2)CC1)c1cnccn1`, in that order: above 20, above 62.5 µg/mL and 3.13 µg/mL (≈ 6.71 µM).
The like results for `CCn1cc(C(=O)O)c(=O)c2cc(F)c(N3CCN(CNC(=O)c4cnccn4)CC3)c(F)c21` were, in that order, above 80, above 62.5 µg/mL and 0.78 µg/mL (≈ 1.65 µM).
For `O=C(NCN1CCN(c2ncccn2)CC1)c1cnccn1`, in experiment [1], the MIC90 was above 12.5 µg/mL.
Still for that read-out and setting: to `COc1ccccc1N1CCN(CNC(=O)c2cnccn2)CC1` belongs 12.5 µg/mL (≈ 38.2 µM).
`O=C(NCN1CCN(c2ccc(F)cc2)CC1)c1cnccn1` showed a Selectivity index with Vero [2] above 40. This compound also registered a CC50 in the experiment on Vero [3] above 62.5 µg/mL. The same compound gave an MIC90 in experiment [1] of 1.76 µg/mL (≈ 5.58 µM).
The compound `COc1c(N2CCN(CNC(=O)c3cnccn3)C(C)C2)c(F)cc2c(=O)c(C(=O)O)cn(C3CC3)c12` (stereo unspecified) yielded a Selectivity index with Vero [2] above 160. In addition, the cytotoxic concentration (CC50) with Vero [3] is above 62.5 µg/mL.
In experiment [1], `NC(=O)c1cnccn1` [PYRAZINAMIDE] registered an MIC90 of 12.5 µg/mL (≈ 102 µM).
